In US12378247B2, “Mesylate salt of para-topolin, compositions containing said salt and use thereof” (USTAV EXPERIMENTALNI BOTANIKY AV CR, V. V. I., priority 2020, dated 2025):

Experiments:
Rat glioma C6 cells = assay: Anti-inflammatory activity: isoproterenol-induced intracellular cAMP synthesis; assay type: cell-based; conditions: isoproterenol-induced cAMP, C6 cells
Description: The anti-inflammatory activity of para-topolin and para-topolin mesylate was determined; cytokinin kinetin was also evaluated as a control. Rat glioma C6 cells (ATCC No. CCL107) were cultured in a monolayer in chemically defined beser medium containing Ham's F10/minimal essential medium (1:1 v/v), 2 mM L-glutamine, 1% (v/v). Minimum vitamins of essential medium (100×), 1% (v/v) minimum essential amino acids (100×), 100 U/ml penicillin, […] streptomycin and 30 nM sodium selenite. Incubation was performed at 37° C. in a 100% humidified atmosphere. The assays were performed in logarithmic growth phase at a density of 2.5×10^5 cells/cm^2. Intracellular cAMP synthesis was induced by the addition of 5 mM (−)-isoproterenol; at the same time, various concentrations of tested compounds were added at the same time as (−)-isoproterenol. After 30 minutes of incubation, the cellular amount of CAMP was determined by ELISA (cAMP-enzyme immunoassay from Amersham). IC50 values were determined from the […] dose-response curve.

[1] = system: Human diploid fibroblast BJ; assay: MTT cytotoxicity assay in normal fibroblasts; assay type: cell-based; conditions: 72 hours
Description: MTT (metabolic tetrazolium toxicity) assay is a standard colorimetric assay for evaluation of cytotoxicity. Mitochondrial dehydrogenase activity converts yellow MTT into violet formazan which is measured by means of spectrometry. Human diploid fibroblast BJ (passage 18-22) were seeded into 96-well plate (5.000 cells per well). After 6 hours cultivation medium (DMEM with 5 g/l glucose, 2 mM glutamine, 100 U/ml penicillin, […] streptomycin, 10% fetal calf serum and sodium bicarbonate) was replaced with the cultivation medium containing test compounds in concentration range of 0-200 μM. Highest concentration was adjusted if the solubility of the compound was limiting. Every concentration was tested in pentaplicate. MTT was added to the cells after 72 hours incubation (final concentration 0.5 mg/ml) and incubation continued for another 3 hours. MTT was solubilised by DMSO and absorbance at 570 nm was measured. Growth inhibition (GI) was estimated using the following equitation: GI=(mean A drug exposed wells-mean Ablank/mean Acontrol wells−mean Ablank)×100%. The GI20 value, the drug concentration causing 20% decrease in mitochondrial dehydrogenase activity, was calculated from the obtained dose response curves.

[2] = ORAC (Oxygen Radical Absorbance Capacity), ability to scavenge free radicals; assay type: biochemical; conditions: n = 3
Description: The ability of the substance to scavenge free radicals in vitro was determined using the ORAC (Oxygen Radical Absorbance Capacity) method. Briefly, 100 μl of fluorescein ([…]) and 25 μl of tested substance solution were pipetted into each well of a 96-well microtiter plate preheated to 37° C. The reaction itself was started by the addition of 25 μL 250 mM AAPH. After shaking for 5 s, the fluorescence (Ex. 485 nm, Em. 510 nm) was read every 3 min for 90 min using an Infinite 200 instrument (TECAN, Switzerland). The area under the curve was used to express the antioxidant capacity relative to trolox, which is used as a standard. […] Such activities are likely to be closely related to the electron-rich C6-hydroxybenzylamino substituent system.

Structure (SMILES) | Anti-inflammatory activity (in words) (Rat glioma C6 cells) | Cytotoxicity for Human Diploid Fibroblasts GI20 [1] | ORAC Average(TE), Trolox equivalents on equimolar basis [2]
c1coc(CNc2ncnc3nc[nH]c23)c1 [6-furfurylaminopurine (kinetin), 6-furfurylaminopurine] | inactive | >167000 nM | 
Oc1ccccc1CNc1ncnc2nc[nH]c12 [6-(2-hydroxybenzylamino)purine (oT), 6-(2-hydroxybenzylamino)purine] |  |  | 7.026 TE
OC[C@H]1O[C@@H](n2cnc3c(NCc4ccccc4)ncnc32)[C@H](O)[C@@H]1O [6-(benzylamino)purine riboside] |  | 1700 nM | 
OC[C@H]1O[C@@H](n2cnc3c(NCc4ccco4)ncnc32)[C@H](O)[C@@H]1O [6-furfurylaminopurine riboside] |  | 2100 nM | 
Oc1cccc(CNc2ncnc3nc[nH]c23)c1 [6-(3-hydroxybenzylamino)purine (mT), 6-(3-hydroxybenzylamino)purine] |  |  | 4.509 TE
